Read-outs that look alike come from different tables or passages of the source.

The results in this text go back to patent US20260091026A1, “METHODS OF TREATING INFLAMMATORY DISEASES” (INTERLINE THERAPEUTICS, INC., priority 2023, published 2026).

In assay [1] the target is T1, GST-RIPK2 fusion protein (human RIPK2 amino acids 1-310) (Homo sapiens, UniProt O43353).
T1 construct: made in house; host or cells: baculovirus-infected Sf9 cells
Kind of assay: RIPK2 binding competition assay (TR-FRET, Tracer 199). Conditions: displacement of Tracer 199 (10 nM), 45 min at 22° C. The source says: The ability of selected compounds of Formulas (I) and (II) to inhibit the binding of an Alexa647-labelled ATP-competitive kinase inhibitor to a GST-RIPK2 fusion protein was quantified employing the TR-FRET-based RIPK2 binding competition assay as described in the following paragraphs.
Recombinant fusion protein of N-terminal Glutathione-S-Transferase (GST) and a fragment of human RIPK2 (amino acids 1-310 of accession number 043353), expressed in baculovirus infected Sf9 cells, purified via glutathione affinity chromatography, was used as GST-RIPK2 fusion protein. Tracer 199 from Life Technologies (catalogue no. PR9115B) was used as Alexa647-labelled ATP-competitive kinase inhibitor.
For the assay, 50 nL of a 100-fold concentrated solution of each test compound in DMSO was pipetted into either a black low volume 384-well microtiter plate or a black 1536-well microtiter plate (both Greiner Bio-One, Frickenhausen, Germany), 3 μL solution of Tracer 199 (16.7 nM=>final concentration in 5 μL assay volume is 10 nM) in aqueous assay buffer (25 mM Tris/HCl pH 7.5, 10 mM magnesium chloride (MgCl2), 5 mM β-glycerophosphate, 2.5 mM dithiothreitol (DTT), 0.5 mM ethylene glycol-bis(2-aminoethylether)-N,N,N′,N′-tetraacetic acid (EGTA), 0.5 mM sodium ortho-vanadate, 0.01% (w/v) bovine serum albumin (BSA), 0.005% (w/v) Pluronic F-127 (Sigma)) were added. Then the binding competition was started by the addition of 2 μL of a solution of the GST-RIPK2 fusion protein (2.5 nM=>final conc. in the 5 μL assay volume is 1 nM) and of Anti-GST-Tb (1.25 nM=>final conc. in the 5 μL assay volume is 0.5 nM), a Lumi4®—Tb cryptate-conjugated anti-GST antibody from PerkinElmer (catalogue no 61GSTTAH), in assay buffer.
The resulting mixture was incubated 45 min at 22° C. to allow the formation of a complex between the Tracer 199, the fusion protein and Anti-GST-Tb. Subsequently, the amount of this complex was evaluated by measurement of the resonance energy transfer from the Tb-cryptate to the Tracer 199. Therefore, the fluorescence emissions at 620 nm and 665 nm after excitation at 337 nm were measured in a TR-FRET reader, e.g. a Pherastar FS(BMG Labtechnologies, Offenburg, Germany) or a Viewlux (PerkinElmer). The ratio of the emissions at 665 nm and at 620 nm was taken as the measure of the amount of the complex. The data were normalized (assay reaction without inhibitor=0% activity, all other assay components but no GST-RIPK2 fusion protein=−100% activity).

The target in assay [2] is T2, RIPK2 (KD)/XIAP (BIR2) (Homo sapiens, UniProt O43353).
T2 construct: made in house; host or cells: baculovirus-infected Sf9 cells
T2 sequence (O43353 1-310): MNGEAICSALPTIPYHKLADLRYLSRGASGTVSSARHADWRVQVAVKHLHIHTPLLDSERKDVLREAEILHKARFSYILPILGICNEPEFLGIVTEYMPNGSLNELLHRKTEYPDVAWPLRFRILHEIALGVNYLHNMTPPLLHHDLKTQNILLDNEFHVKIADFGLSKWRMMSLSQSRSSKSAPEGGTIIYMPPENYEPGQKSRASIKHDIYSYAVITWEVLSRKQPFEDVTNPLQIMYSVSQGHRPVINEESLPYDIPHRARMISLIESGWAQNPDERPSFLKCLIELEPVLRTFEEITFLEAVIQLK
Description: RIPK2-XIAP binding competition PPI assay (TR-FRET). As to conditions: for Emax: read-out: PPI Amax; for IC50: GST-RIPK2 / His-XIAP (BIR2)-avi, 120 min at 23° C. In outline:
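After 2 h at 23 °C, complex formation was read as the 665/520 nm emission ratio (337 nm excitation), scaled between uninhibited reaction and 50 nM GSK583. The mix held 1 nM human RIPK2 kinase fragment-GST, 25 nM His-tagged XIAP BIR2 and Tb/XL665 antibodies in pH 7.5 Tris buffer containing vanadate and glycerophosphate.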
(TR-FRET usually uses a lanthanide donor and a delayed reading to cut background.)

For assay [3], the system named is THP1-Dual cells, NF-κB pathway (SEAP). Kind of assay: THP-1 Dual cell SEAP assay (L18-MDP stimulated). Conditions: 10 ng/mL L18-MDP, 20-24 h, SEAP readout, read-out: IFNγ THP1 IC50. The format is cell-based. In outline:
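IC50 values come from non-linear fits of % inhibition of SEAP, measured as QUANTI-Blue optical density (620-655 nm, 2 h) in media-blanked supernatants. These were taken from THP1-Dual cells treated with compound for 30 min before overnight exposure to 10 ng/mL L18-MDP final at 37 °C.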

Where [4] appears, read: 50 nM of GSK583 = -100% activity.

T1 sequence (O43353 1-310): as above

For `COc1cc2ncc(-n3cc(NC(C)=O)cn3)n2cc1S(=O)(=O)C(C)(C)C` [Example 155, N-(1-(6-(tert-butylsulfonyl)-7-methoxyimidazo[1,2-a]pyridin-3-yl)-1H-pyrazol-4-yl)acetamide], the IC50 (as a rule, the midpoint of a concentration-inhibition curve) was above 1000 nM in assay [1], above 1000 nM in assay [2] and above 2500 nM in assay [3] (Homo sapiens). Moreover, the Emax in assay [2] (setting [4]) was at most 30%.
Regarding `COc1cc2ncc(-c3cc(C(=O)NCc4ccccc4Cl)n(C)n3)n2cc1S(=O)(=O)C(C)(C)C` [Example 4, 3-(6-(tert-butylsulfonyl)-7-methoxyimidazo[1,2-a]pyridin-3-yl)-N-(2-chlorobenzyl)-1-methyl-1H-pyrazole-5-carboxamide], the IC50 in assay [1] is below 200 nM; in assay [2], 10 to 100 nM; in assay [3] (Homo sapiens), 500 to 2500 nM. In addition, in assay [2] (setting [4]), the Emax is at least 80%.
As for `COc1cc2ncc(-n3cc(NC(=O)[C@@H]4C[C@H]4c4ccccc4)cn3)n2cc1S(=O)(=O)C(C)(C)C` [Example 168, (1R,2R)-N-(1-(6-(tert-butylsulfonyl)-7-methoxyimidazo[1,2-a]pyridin-3-yl)-1H-pyrazol-4-yl)-2-phenylcyclopropane-1-carboxamide], the IC50 was above 1000 nM in assay [1], above 1000 nM in assay [2] and above 2500 nM in assay [3] (Homo sapiens). Besides, the Emax in assay [2] (setting [4]) is at least 80%.
`COc1cc2ncc(-c3cc(C(=O)N(C)C)n(C)n3)n2cc1S(=O)(=O)C(C)(C)C` [Example 5, 3-(6-(tert-butylsulfonyl)-7-methoxyimidazo[1,2-a]pyridin-3-yl)-N,N,1-trimethyl-1H-pyrazole-5-carboxamide]: the IC50 in assay [1] was below 200 nM; in assay [2] it was above 1000 nM; in assay [3] (Homo sapiens) it was above 2500 nM. In assay [2] (setting [4]), the Emax was at most 30%.
In the same order, the values of `COc1cc2ncc(-n3cc(NC(=O)c4ccccc4)cn3)n2cc1S(=O)(=O)C(C)(C)C` [Example 170, N-(1-(6-(tert-butylsulfonyl)-7-methoxyimidazo[1,2-a]pyridin-3-yl)-1H-pyrazol-4-yl)benzamide] are above 1000 nM, above 1000 nM, above 2500 nM and 55 to 80%.
`CN1CCC(Nc2cncc(-c3cc(NC(=O)Cc4ccccc4Cl)n(C)n3)c2)CC1` [Example 184, 2-(2-chlorophenyl)-N-(1-methyl-3-(5-((1-methylpiperidin-4-yl)amino)pyridin-3-yl)-1H-pyrazol-5-yl) acetamide]: the figures for the IC50 in assay [1], in assay [2] and in assay [3] (Homo sapiens) were below 200 nM, 100 to 1000 nM and above 2500 nM, respectively. Besides, in assay [2] (setting [4]), the Emax was at least 80%.
Turning to `COc1cc2ncc(-n3cc(N4CCC(c5ccccc5)C4=O)cn3)n2cc1S(=O)(=O)C(C)(C)C` (racemic) [Example 180, 1-(1-(6-(tert-butylsulfonyl)-7-methoxyimidazo[1,2-a]pyridin-3-yl)-1H-pyrazol-4-yl)-3-phenylpyrrolidin-2-one], the IC50 in assay [1] was above 1000 nM; in assay [2], above 1000 nM; in assay [3] (Homo sapiens), above 2500 nM. In assay [2] (setting [4]), the Emax was at least 80%.
For `COc1cc2ncc(-n3cc(C(=O)NCc4ccccc4Cl)cn3)n2cc1S(=O)(=O)C(C)(C)C` [Example 2, 1-(6-(tert-butylsulfonyl)-7-methoxyimidazo [1,2-a]pyridin-3-yl)-N-(2-chlorobenzyl)-1H-pyrazole-4-carboxamide], the IC50 in assay [1] is 200 to 500 nM; in assay [2], 100 to 1000 nM; in assay [3] (Homo sapiens) it was above 2500 nM. Besides, in assay [2] (setting [4]), the Emax was at least 80%.
The like results for `COc1cc2ncc(-n3cc(NC(=O)Cc4ccccc4)cn3)n2cc1S(=O)(=O)C(C)(C)C` [Example 160, N-(1-(6-(tert-butylsulfonyl)-7-methoxyimidazo[1,2-a]pyridin-3-yl)-1H-pyrazol-4-yl)-2-phenylacetamide] were, in that order, 200 to 500 nM, 100 to 1000 nM, above 2500 nM and at least 80%.
The like results for `COc1cc2ncc(-n3cc(NC(=O)[C@H](C)c4ccccc4)cn3)n2cc1S(=O)(=O)C(C)(C)C` [Example 161, (R)-N-(1-(6-(tert-butylsulfonyl)-7-methoxyimidazo[1,2-a]pyridin-3-yl)-1H-pyrazol-4-yl)-2-phenylpropanamide] were, in that order, 200 to 500 nM, 100 to 1000 nM, above 2500 nM and at least 80%.
In the same order, the values of `COc1cc2ncc(-n3cc(NC(=O)C4CCCCC4)cn3)n2cc1S(=O)(=O)C(C)(C)C` [Example 164, N-(1-(6-(tert-butylsulfonyl)-7-methoxyimidazo[1,2-a]pyridin-3-yl)-1H-pyrazol-4-yl)cyclohexanecarboxamide] are above 1000 nM, above 1000 nM, above 2500 nM and at least 80%.
As to `COc1cc2ncc(-n3cc(N4CCC(c5ccccc5)C4=O)cn3)n2cc1S(=O)(=O)C(C)(C)C` (single isomer, unassigned) [Example 183, (S)- or (R)-1-(1-(6-(tert-butylsulfonyl)-7-methoxy-imidazo[1,2-a]pyridin-3-yl)-1H-pyrazol-4-yl)-3-phenylpyrrolidin-2-one], the IC50 in assay [1] is above 1000 nM; in assay [2], above 1000 nM; in assay [3], above 2500 nM. Besides, the “PPI Amax” value in assay [2] (setting [4]) is on record as “A (Amax of ≥80%)”.
Consider `COc1cc2ncc(-n3cc(NC(=O)[C@H]4C[C@H]4c4ccccc4)cn3)n2cc1S(=O)(=O)C(C)(C)C` [Example 171, (1S,2R)-N-(1-(6-(tert-butylsulfonyl)-7-methoxyimidazo[1,2-a]pyridin-3-yl)-1H-pyrazol-4-yl)-2-phenylcyclopropane-1-carboxamide], for which the IC50 is below 200 nM in assay [1], 100 to 1000 nM in assay [2] and 500 to 2500 nM in assay [3] (Homo sapiens). In addition, the Emax in assay [2] (setting [4]) is at least 80%.
The like results for `COc1cc2ncc(-n3cc(NC(=O)CC4CCCCC4)cn3)n2cc1S(=O)(=O)C(C)(C)C` [Example 167, N-(1-(6-(tert-butylsulfonyl)-7-methoxyimidazo[1,2-a]pyridin-3-yl)-1H-pyrazol-4-yl)-2-cyclohexylacetamide] were, in that order, above 1000 nM, above 1000 nM, above 2500 nM and at least 80%.
Turning to `COc1cc2ncc(-n3cc(NC(=O)C4(C)CCCCC4)cn3)n2cc1S(=O)(=O)C(C)(C)C` [Example 175, N-(1-(6-(tert-butylsulfonyl)-7-methoxyimidazo[1,2-a]pyridin-3-yl)-1H-pyrazol-4-yl)-1-methylcyclohexane-1-carboxamide], the values for the IC50 in assay [1], in assay [2] and in assay [3] (Homo sapiens) were above 1000 nM, above 1000 nM and above 2500 nM, respectively. In addition, in assay [2] (setting [4]), the Emax was 55 to 80%.
Consider `COc1cn2ncc(-c3cc(C(=O)N[C@H](C)c4ncccc4F)n(C)n3)c2cc1S(=O)(=O)C(C)(C)C` [Example 114, (R)-3-(5-(tert-butylsulfonyl)-6-methoxypyrazolo[1,5-a]pyridin-3-yl)-N-(1-(3-fluoropyridin-2-yl)ethyl)-1-methyl-1H-pyrazole-5-carboxamide], for which the Emax in assay [2] (setting [4]) was at least 80%. Besides, the IC50 in assay [2] was in the range of 10 to 100 nM; in assay [3] (Homo sapiens), 100 to 500 nM.
